Results taken from US8420637B2, “Abnormal cannabidiols as agents for lowering intraocular pressure” (Allergan, Inc., priority 2006, dated 2013).

System: Laser-induced unilaterally ocular hypertensive Cynomolgus monkeys
Assay: Intraocular pressure by applanation pneumatonometry in conscious animals
Assay type: in vivo
Set-up: key: *: one star indicates no potency; ***: three stars indicates a very potent compound
Conditions: topical to one eye, dosed once, IOP measured over the course of 24 hours; female ocular hypertensive Cynomolgus monkeys
Procedure: Intraocular pressure was measured by applanation pneumatonometry in conscious animals. The test compound was administered topically to one eye while vehicle was given to the fellow eye in a masked fashion. Laser-induced unilaterally ocular hypertensive Cynomolgus monkeys (females) were dosed once and the IOP was measured over the course of 24 hours.
The results are shown in the Table, below wherein the stars indicating the potency of the compound. That is, one star indicates no potency, three stars indicates a very potent compound.

Row | Structure (SMILES) | Efficacy
1 | Oc1cc(O)c(C2CCCCC2)c(Cl)c1 [9 (b), 5-Chloro-4-cyclohexylbenzene-1,3-diol] | ***
2 | CC1CC(=O)CC(=O)N1C1CCCCC1 (stereo not drawn) [Example 20, 1-Cyclohexyl-6-methylpiperidine-2,4-dione] | ***
3 | C=C(C)C1CCC(C)=CC1c1c(O)cc(O)cc1Cl (stereo not drawn) [Example 5, 5-Chloro-4-(6-Isopropenyl-3-methylcyclohex-2-enyl)benzene-1,3-diol] | ***
